“And” between values parts separate entries of the source, which are not always exact repeats. Equal entries are not always repeated.
Tests used:
[1] = target: EGFR (Human), P00533 [T790M/L858R]
[2] = target: EGFR (human), P00533 [WT]
EGFR (human) = EGFR (human) (UniProt P00533); conditions: hcc827
Chain of EGFR (human) (P00533 whole entry, looked up): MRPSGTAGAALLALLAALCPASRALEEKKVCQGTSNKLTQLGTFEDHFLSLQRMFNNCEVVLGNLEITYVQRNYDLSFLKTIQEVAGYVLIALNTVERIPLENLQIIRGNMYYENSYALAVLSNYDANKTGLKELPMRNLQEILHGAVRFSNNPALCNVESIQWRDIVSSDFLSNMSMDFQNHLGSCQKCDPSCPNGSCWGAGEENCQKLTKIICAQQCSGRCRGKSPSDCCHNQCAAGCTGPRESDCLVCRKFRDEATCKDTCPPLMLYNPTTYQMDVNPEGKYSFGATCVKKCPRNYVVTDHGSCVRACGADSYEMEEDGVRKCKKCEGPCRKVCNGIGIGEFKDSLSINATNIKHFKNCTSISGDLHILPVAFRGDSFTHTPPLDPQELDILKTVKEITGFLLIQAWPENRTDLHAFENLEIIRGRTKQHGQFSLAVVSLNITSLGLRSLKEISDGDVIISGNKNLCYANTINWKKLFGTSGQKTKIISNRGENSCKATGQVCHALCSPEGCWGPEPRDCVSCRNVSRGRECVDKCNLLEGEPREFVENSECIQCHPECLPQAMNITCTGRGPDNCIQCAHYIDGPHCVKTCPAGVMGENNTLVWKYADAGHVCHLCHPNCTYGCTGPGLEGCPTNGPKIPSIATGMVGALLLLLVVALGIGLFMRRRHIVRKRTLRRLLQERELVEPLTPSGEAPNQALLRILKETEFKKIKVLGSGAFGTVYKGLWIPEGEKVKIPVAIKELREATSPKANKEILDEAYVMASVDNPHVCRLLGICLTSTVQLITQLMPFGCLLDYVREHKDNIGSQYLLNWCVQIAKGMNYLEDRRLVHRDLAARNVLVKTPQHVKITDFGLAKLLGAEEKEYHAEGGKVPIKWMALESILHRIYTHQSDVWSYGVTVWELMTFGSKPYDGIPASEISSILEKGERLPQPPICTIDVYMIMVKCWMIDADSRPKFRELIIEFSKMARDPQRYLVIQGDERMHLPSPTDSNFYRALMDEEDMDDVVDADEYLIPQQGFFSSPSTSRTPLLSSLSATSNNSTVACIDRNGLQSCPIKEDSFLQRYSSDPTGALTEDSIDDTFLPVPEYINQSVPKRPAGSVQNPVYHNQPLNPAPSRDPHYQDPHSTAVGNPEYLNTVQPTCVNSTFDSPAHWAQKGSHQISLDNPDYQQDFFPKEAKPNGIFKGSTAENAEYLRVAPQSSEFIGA

Chain of EGFR (Human), P00533 [T790M/L858R] (P00533 whole entry T790M/L858R, looked up): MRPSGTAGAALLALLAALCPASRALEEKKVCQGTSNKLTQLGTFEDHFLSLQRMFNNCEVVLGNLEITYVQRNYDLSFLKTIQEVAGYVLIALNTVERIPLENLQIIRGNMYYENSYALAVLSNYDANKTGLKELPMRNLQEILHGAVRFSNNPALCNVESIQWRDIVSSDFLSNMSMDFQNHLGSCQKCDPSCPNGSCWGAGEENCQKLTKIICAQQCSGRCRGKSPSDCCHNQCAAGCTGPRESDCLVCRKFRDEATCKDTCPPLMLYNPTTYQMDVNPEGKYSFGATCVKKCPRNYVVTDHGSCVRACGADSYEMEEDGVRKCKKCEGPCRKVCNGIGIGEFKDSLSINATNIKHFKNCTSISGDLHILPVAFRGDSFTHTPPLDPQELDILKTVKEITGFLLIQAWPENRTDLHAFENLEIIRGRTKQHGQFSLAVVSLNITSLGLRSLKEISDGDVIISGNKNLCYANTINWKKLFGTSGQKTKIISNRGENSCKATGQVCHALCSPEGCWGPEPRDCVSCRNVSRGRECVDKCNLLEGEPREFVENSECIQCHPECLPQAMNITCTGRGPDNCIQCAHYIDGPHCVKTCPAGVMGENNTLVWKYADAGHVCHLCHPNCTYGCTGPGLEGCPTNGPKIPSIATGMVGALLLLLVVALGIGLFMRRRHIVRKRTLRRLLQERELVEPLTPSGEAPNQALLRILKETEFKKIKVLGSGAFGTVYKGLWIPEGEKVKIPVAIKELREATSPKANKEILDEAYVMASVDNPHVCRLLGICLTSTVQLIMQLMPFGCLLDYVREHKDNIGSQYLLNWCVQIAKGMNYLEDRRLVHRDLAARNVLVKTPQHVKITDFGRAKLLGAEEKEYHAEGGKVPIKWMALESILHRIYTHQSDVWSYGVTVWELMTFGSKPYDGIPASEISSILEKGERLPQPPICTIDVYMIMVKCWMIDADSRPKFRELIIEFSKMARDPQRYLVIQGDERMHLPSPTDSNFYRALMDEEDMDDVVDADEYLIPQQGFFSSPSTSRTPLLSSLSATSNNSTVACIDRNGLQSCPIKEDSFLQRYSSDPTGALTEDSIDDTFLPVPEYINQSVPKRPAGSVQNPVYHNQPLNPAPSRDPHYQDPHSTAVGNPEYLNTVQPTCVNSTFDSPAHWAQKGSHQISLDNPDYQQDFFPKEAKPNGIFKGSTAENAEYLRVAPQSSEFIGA
Chain of EGFR (human), P00533 [WT] (P00533 whole entry, looked up): as the sequence (P00533 whole entry, looked up) above

| Compound | IC50 [1] | IC50 [2] | IC50 (EGFR (human)) |
| --- | --- | --- | --- |
| CN(C)C/C=C/C(=O)N1CCc2c(sc3ncnc(NCCO)c23)C1 | > 10 µM | – | – |
| C[C@@H](Nc1ncnc2sc3c(c12)CCCC3)c1ccccc1 | – | 3.24 µM | – |
| O=C(/C=C/c1ccccc1)N1CCc2c(sc3ncnc(N[C@H](CO)c4ccccc4)c23)C1 | > 10 µM | – | – |
| CCC(=O)N1CCc2c(sc3ncnc(N[C@H](CO)c4ccccc4)c23)C1 | > 10 µM | – | – |
| OC[C@@H](Nc1ncnc2sc3c(c12)CCNC3)c1ccccc1 | > 10 µM | – | – |
| c1ccc(CNc2ncnc3sc4c(c23)CCCC4)cc1 | > 10 µM | 2.6 µM | > 10 µM |
| OC[C@@H](Nc1ncnc2sc3c(c12)CCCC3)c1ccccc1 | > 10 µM | – | – |

Now from value to molecule:

| IC50 [1] | IC50 [2] | IC50 (EGFR (human)) | Compound |
| --- | --- | --- | --- |
| > 10 µM | – | – | CN(C)C/C=C/C(=O)N1CCc2c(sc3ncnc(N[C@@H](CO)c4ccccc4)c23)C1 |
| > 10 µM | – | – | CN1CCN(C/C=C/C(=O)N2CCc3c(sc4ncnc(N[C@H](CO)c5ccccc5)c34)C2)CC1 |
| – | 0.007 µM and 0.006 µM | – | CN(C)C/C=C/C(=O)N1CCc2c(sc3ncnc(N[C@H](CO)c4ccccc4)c23)C1 |
| > 10 µM | – | – | C=CC(=O)N1CCc2c(sc3ncnc(N[C@@H](CO)c4ccccc4)c23)C1 |

Source: the Kinase Knowledgebase extract (Sharma et al. 2016)
